Results from patent US20240279298A1 (BEIJING TUO JIE BIOPHARMACEUTICAL CO. LTD., priority 2021, published 2024).
Where a SMILES comes first, the peptide text is derived from it. [ ]: non-standard residue; d: D form. Aib = CC(C)(N)C(=O)O

Tests used:
[1] = Pharmacokinetics in rats after subcutaneous injection; assay type: in vivo, SD rats; settings: plasma
Procedure: (1) Animals were grouped according to Table 12, and were given free access to water and food before administration.
• Sampling time: 0 min pre-dose, and 2 min, 4 min, 7 min, 10 min, 20 min, 40 min, 1 h and 2 h post-dose. Blood was collected from rats by jugular catheterization.
• 1) 0.2 mL of whole blood was collected at each time point into a centrifuge tube containing EDTA-K2; • 2) The blood samples were centrifuged at 4000 g at 4° C. for 5 min, and separated to give the plasma; • 3) The plasma samples were cryopreserved at −80° C.
The mixture was vortexed for 5 min and centrifuged at a low temperature for 10 min. 100 μL of the supernatant was taken and added to 100 μL of 0.1% formic acid aqueous solution. The mixture was mixed well, and loaded on the instrument for analysis; • Liquid chromatography and mass spectrometry analysis: LC-30A liquid chromatography system (Shimadzu, Japan) and API 5500 liquid chromatography-triple quadrupole mass spectrometer (Analyst Software data processing system, AB Sciex, USA) were used. The chromatographic column was nanomicro Unisil C18aq (4.6 mm×150 mm, 5 μm) chromatographic column; the column temperature was 40° C.; the mobile phase A was 0.1% formic acid aqueous solution, and the mobile phase B was 0.1% formic acid in acetonitrile; the flow rate was 0.5 mL/min; the injection volume was 20 μL; the gradient is shown in Table 13 below. The mass spectrum was obtained using an electrospray ionization (ESI) source, a positive ion analysis mode and a multi reaction monitoring (MRM) scanning mode.
The plasma concentration of the test compounds was measured by HPLC-MS/MS. The plasma concentration-time curve was plotted, and the pharmacokinetic parameters were calculated by PKSolver.

[2] = test system: human kidney microsomes
[3] = male SD rats, single SC injection, Dasiglucagon 5 mg/kg, 40 5.06 mg/kg

`CC(C)C[C@H](NC(=O)[C@H](Cc1ccc(O)cc1)NC(=O)[C@H](CCCCN)NC(=O)[C@H](CO)NC(=O)[C@H](Cc1ccc(O)cc1)NC(=O)[C@H](CC(=O)O)NC(=O)[C@H](CO)NC(=O)[C@@H](NC(=O)[C@H](Cc1ccccc1)NC(=O)[C@@H](NC(=O)CNC(=O)[C@H](CCC(N)=O)NC(=O)[C@H](CO)NC(=O)[C@@H](N)Cc1c[nH]cn1)[C@@H](C)O)[C@@H](C)O)C(=O)N[C@@H](CC(=O)O)C(=O)N[C@@H](CC(C)C)C(=O)NC(C)(C)C(=O)N[C@@H](CCCNC(=N)N)C(=O)N[C@@H](C)C(=O)N[C@@H](CCC(N)=O)C(=O)N[C@@H](CCC(=O)O)C(=O)N[C@@H](Cc1ccccc1)C(=O)N[C@H](C(=O)N[C@@H](CCC(N)=O)C(=O)N[C@@H](Cc1c[nH]c2ccccc12)C(=O)N[C@@H](CC(C)C)C(=O)N[C@@H](CCC(=O)O)C(=O)N[C@@H](CO)C(=O)N[C@H](C(=O)O)[C@@H](C)O)C(C)C` [Compound 40] (H-HSQGTFTSDYSKYLDL[Aib]RAQEFVQWLEST-OH) gave an AUClast/D [1, 3] of 176 h·ng/mL per mg/kg, a T1/2 [1, 3] of 24.8 min and a Tmax ([1]; male, SD, rat, sc) of 7.02 min. The half-life ([1]; male, SD, rat, sc, male SD rats, single SC injection, Dasiglucagon 5 mg/kg, 40 5.06 mg/kg) was 24.6 min, the bioavailability ([1]; male, SD, rat, sc, read-out: Bioavailability (F %)) was 88.2% and the “Percentage residues 0 min” value [2] was 100.0%. The “Percentage residues 60 min” value [2] was 25.16%, the T½ ([2]; human, microsomes, 1 μM) was 38.19 min and the “Percentage residues 15 min” value ([2]; human, microsomes, 0.25 h, 1 μM) was 63.34%. For the same compound, the “Percentage residues 30 min” value ([2]; human, microsomes, 0.5 h, 1 μM) was 45.04% and the “Percentage residues 120 min” value ([2]; human, microsomes, 2 h, 1 μM) was 10.61%.
